Assays:
kochia [1] = assay: Test C postemergence; type: in vivo, Bassia scoparia; conditions: 10 days, 0 to 100 scale (0 no effect, 100 complete control)
Summary of the method: (§1)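 Soil-applied (pre) and foliar (post, 1–2 leaf, 2–10 cm) sprays; surfactant-containing non-phytotoxic solvent vehicle; loam/sand substrate. Readout: visual % control at 10 d, greenhouse, versus untreated.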

ragweed [2] = assay: Test C postemergence; type: in vivo, Ambrosia artemisiifolia; conditions: 10 days, 0 to 100 scale (0 no effect, 100 complete control)
Summary of the method: as §1

foxtail, giant [3] = assay: Test C preemergence; type: in vivo, Setaria faberi
Source text: (§2) Seeds of plant species selected from barnyardgrass (Echinochloa crusgalli), blackgrass (Alopecurus myosuroides), corn (Zea mays), foxtail, giant (giant foxtail, Setaria faberi), green foxtail (Setaria viridis), goosegrass (Eleusine indica), kochia (Bassia scoparia), oat, wild (wild oat, Avena fatua), pigweed, palmer (palmer amaranth, palmer pigweed, Amaranthus palmeri), Pigweed, Redroot (redroot pigweed, Amaranthus retroflexus), ragweed (common ragweed, Ambrosia artemisiifolia), ryegrass, Italian ([…] ryegrass, Lolium multiflorum), soybean (Glycine max), and wheat (Triticum aestivum) were planted into a blend of loam soil and sand and treated preemergence with a directed soil spray using test chemicals formulated in a non-phytotoxic solvent mixture which included a surfactant. At the same time, plants selected from these crops and weed species and also galium (catchweed bedstraw, Galium aparine) and horseweed (Erigeron canadensis) were planted in pots containing the same blend of loam soil and sand and treated with postemergence applications of test chemicals formulated in the same manner. Plants ranged in height from 2 to 10 cm and were in the one- to two-leaf stage for the postemergence treatment. Treated plants and untreated controls were maintained in a greenhouse for 10 days, after which time all treated plants were compared to untreated controls and visually evaluated for injury. Plant response ratings, summarized in Table C, are based on a 0 to 100 scale where 0 is no effect and 100 is complete control. A dash (-) response means no test result.

barnyardgrass [4] = assay: Test C postemergence; type: in vivo, Echinochloa crusgalli; conditions: 10 days, 0 to 100 scale (0 no effect, 100 complete control)
Summary of the method: as §1

foxtail, giant [5] = assay: Test C postemergence; type: in vivo, Setaria faberi; conditions: 10 days, 0 to 100 scale (0 no effect, 100 complete control)
Source text: as §2

horseweed = assay: Test C postemergence; type: in vivo, Erigeron canadensis; conditions: 10 days, 0 to 100 scale (0 no effect, 100 complete control)
Summary of the method: as §1

soybean [6] = assay: Test C preemergence; type: in vivo, Glycine max
Summary of the method: as §1

pigweed, palmer [7] = assay: Test C postemergence; type: in vivo, Amaranthus palmeri; conditions: 10 days, 0 to 100 scale (0 no effect, 100 complete control)
Summary of the method: as §1

soybean [8] = assay: Test C postemergence; type: in vivo, Glycine max; conditions: 10 days, 0 to 100 scale (0 no effect, 100 complete control)
Summary of the method: as §1

wheat [9] = assay: Test C preemergence; type: in vivo, Triticum aestivum
Summary of the method: as §1

wheat [10] = assay: Test C postemergence; type: in vivo, Triticum aestivum; conditions: 10 days, 0 to 100 scale (0 no effect, 100 complete control)
Summary of the method: as §1

blackgrass [11] = assay: Test C preemergence; type: in vivo, Alopecurus myosuroides
Summary of the method: as §1

pigweed, palmer [12] = assay: Test C preemergence; type: in vivo, Amaranthus palmeri
Summary of the method: as §1

sedge, umbrella = assay: Test D flooded paddy test; type: in vivo, Cyperus difformis; conditions: 250 g ai/ha, applied to paddy water, visual rating after 13 to 14 days, scale 0 to 100 (0 no effect, 100 complete control)
Summary of the method: (§3)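 2-leaf plants; flood 3 cm above soil; compound dosed into paddy water; greenhouse 13–14 d; visual rating vs controls, 0–100 (100 = complete control); dash = not tested.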

barnyardgrass [13] = assay: Test C preemergence; type: in vivo, Echinochloa crusgalli
Summary of the method: as §1

ducksalad = assay: Test D flooded paddy test; type: in vivo, Heteranthera limosa; conditions: 250 g ai/ha, applied to paddy water, visual rating after 13 to 14 days, scale 0 to 100 (0 no effect, 100 complete control)
Summary of the method: as §3

oat, wild [14] = assay: Test C preemergence; type: in vivo, Avena fatua
Summary of the method: as §1

kochia [15] = assay: Test C preemergence; type: in vivo, Bassia scoparia
Summary of the method: as §1

corn [16] = assay: Test C postemergence; type: in vivo, Zea mays; conditions: 10 days, 0 to 100 scale (0 no effect, 100 complete control)
Summary of the method: as §1

barnyardgrass [17] = assay: Test D flooded paddy test; type: in vivo, Echinochloa crus-galli; conditions: 250 g ai/ha, applied to paddy water, visual rating after 13 to 14 days, scale 0 to 100 (0 no effect, 100 complete control)
Summary of the method: as §3

rice = assay: Test D flooded paddy test; type: in vivo, Oryza sativa; conditions: 250 g ai/ha, applied to paddy water, visual rating after 13 to 14 days, scale 0 to 100 (0 no effect, 100 complete control)
Summary of the method: as §3

ryegrass, Italian [18] = assay: Test C postemergence; type: in vivo, Lolium multiflorum; conditions: 10 days, 0 to 100 scale (0 no effect, 100 complete control)
Summary of the method: as §1

blackgrass [19] = assay: Test C postemergence; type: in vivo, Alopecurus myosuroides; conditions: 10 days, 0 to 100 scale (0 no effect, 100 complete control)
Summary of the method: as §1

galium = assay: Test C postemergence; type: in vivo, Galium aparine; conditions: 10 days, 0 to 100 scale (0 no effect, 100 complete control)
Summary of the method: as §1

oat, wild [20] = assay: Test C postemergence; type: in vivo, Avena fatua; conditions: 10 days, 0 to 100 scale (0 no effect, 100 complete control)
Summary of the method: as §1

corn [21] = assay: Test C preemergence; type: in vivo, Zea mays
Summary of the method: as §1

ragweed [22] = assay: Test C preemergence; type: in vivo, Ambrosia artemisiifolia
Summary of the method: as §1

ryegrass, Italian [23] = assay: Test C preemergence; type: in vivo, Lolium multiflorum
Summary of the method: as §1

[24] = 500 g ai/ha, preemergence, 0 to 100 scale (0 no effect, 100 complete control)
[25] = Preemergence, 125 g ai/ha, 0 to 100 scale, 0 no effect, 100 complete control

CC(C)c1ncn(-c2cc(C(=O)N3CC(C(F)(F)F)Oc4c(Cl)cccc43)ccn2)n1 (single isomer, unassigned) [Compound 331]
90: Plant response rating, Soybean (soybean [8]; Postemergence, 125 g ai/ha)
70: Plant response rating, Kochia (kochia [1]; 500 g ai/ha, postemergence) | Blackgrass plant response rating (blackgrass [11]; [24])
30: Plant response rating, Barnyardgrass (barnyardgrass [4]; 500 g ai/ha, postemergence) | Plant response rating, Foxtail, Giant (foxtail, giant [5]; Postemergence, 125 g ai/ha) | Plant response rating, Pigweed, Palmer (pigweed, palmer [12]; [25])
20: Plant response rating, Foxtail, Giant (foxtail, giant [3]; [25]) | Plant response rating, Pigweed, Palmer (pigweed, palmer [7]; Postemergence, 125 g ai/ha) | Plant response rating, Wheat (wheat [10]; 500 g ai/ha, postemergence) | Plant response rating, Blackgrass (blackgrass [11]; [25]) | Oat, Wild plant response rating (oat, wild [14]; [24]) | Kochia plant response rating (kochia [15]; [24]) | Plant response rating, Blackgrass (blackgrass [19]; 500 g ai/ha, postemergence)
60: Foxtail, Giant plant response rating (foxtail, giant [3]; [24]) | Ryegrass, Italian plant response rating (ryegrass, Italian [23]; [24]) | Plant response rating, Ryegrass, Italian (ryegrass, Italian [23]; [25])
50: Plant response rating, Pigweed, Palmer (pigweed, palmer [7]; 500 g ai/ha, postemergence) | Plant response rating, Galium (galium; 500 g ai/ha, postemergence) | Plant response rating, Galium (galium; Postemergence, 125 g ai/ha)
40: Plant response rating, Kochia (kochia [1]; Postemergence, 125 g ai/ha) | Plant response rating, Foxtail, Giant (foxtail, giant [5]; 500 g ai/ha, postemergence) | Plant response rating, Corn (corn [16]; 500 g ai/ha, postemergence)
100: Plant response rating, Soybean (soybean [8]; 500 g ai/ha, postemergence) | Pigweed, Palmer plant response rating (pigweed, palmer [12]; [24])
0: Plant response rating, Ragweed (ragweed [2]; 500 g ai/ha, postemergence) | Plant response rating, Ragweed (ragweed [2]; Postemergence, 125 g ai/ha) | Plant response rating, Horseweed (horseweed; 500 g ai/ha, postemergence) | Plant response rating, Horseweed (horseweed; Postemergence, 125 g ai/ha) | Soybean plant response rating (soybean [6]; [24]) | Plant response rating, Soybean (soybean [6]; [25]) | Wheat plant response rating (wheat [9]; [24]) | Plant response rating, Wheat (wheat [9]; [25]) | Plant response rating, Sedge, Umbrella (Flood) (sedge, umbrella) | Barnyardgrass plant response rating (barnyardgrass [13]; [24]) | Plant response rating, Barnyardgrass (barnyardgrass [13]; [25]) | Plant response rating, Ducksalad (Flood) (ducksalad) | Plant response rating, Oat, Wild (oat, wild [14]; [25]) | Plant response rating, Kochia (kochia [15]; [25]) | Plant response rating, Barnyardgrass (Flood) (barnyardgrass [17]) | Plant response rating, Rice (Flood) (rice) | Plant response rating, Ryegrass, Italian (ryegrass, Italian [18]; Postemergence, 125 g ai/ha) | Plant response rating, Blackgrass (blackgrass [19]; Postemergence, 125 g ai/ha) | Plant response rating, Oat, Wild (oat, wild [20]; 500 g ai/ha, postemergence) | Plant response rating, Oat, Wild (oat, wild [20]; Postemergence, 125 g ai/ha) | Corn plant response rating (corn [21]; [24]) | Plant response rating, Corn (corn [21]; [25]) | Ragweed plant response rating (ragweed [22]; [24]) | Plant response rating, Ragweed (ragweed [22]; [25])
10: Plant response rating, Barnyardgrass (barnyardgrass [4]; Postemergence, 125 g ai/ha) | Plant response rating, Wheat (wheat [10]; Postemergence, 125 g ai/ha) | Plant response rating, Corn (corn [16]; Postemergence, 125 g ai/ha) | Plant response rating, Ryegrass, Italian (ryegrass, Italian [18]; 500 g ai/ha, postemergence)

Source: patent publication US20260262643A1, “HERBICIDAL BENZOXAZINES” (FMC CORPORATION, priority 2022, published 2026)
